Calls of active or inactive are those of the source.
How the values were obtained:
[1] = test system: A549; test: Antiproliferative activity against human A549 cells assessed as cell growth inhibition at 5 uM incubated for 48 hrs by CCK-8 assay; assay type: functional, cell-based
[2] = test system: HeLa; test: Antiproliferative activity against human HeLa cells assessed as cell growth inhibition at 5 uM incubated for 48 hrs by CCK-8 assay; assay type: functional, cell-based
[3] = biological target: T1, Protein deacetylase HDAC6 (Homo sapiens) (UniProt Q9UBN7); test: Induction of HDAC6 degradation in human RS4-11 cells at 0.5 to 10 uM incubated for 12 hrs by Western blotting analysis; assay type: cell-based; details: dose 0.5-10 µM
T1 sequence (whole entry): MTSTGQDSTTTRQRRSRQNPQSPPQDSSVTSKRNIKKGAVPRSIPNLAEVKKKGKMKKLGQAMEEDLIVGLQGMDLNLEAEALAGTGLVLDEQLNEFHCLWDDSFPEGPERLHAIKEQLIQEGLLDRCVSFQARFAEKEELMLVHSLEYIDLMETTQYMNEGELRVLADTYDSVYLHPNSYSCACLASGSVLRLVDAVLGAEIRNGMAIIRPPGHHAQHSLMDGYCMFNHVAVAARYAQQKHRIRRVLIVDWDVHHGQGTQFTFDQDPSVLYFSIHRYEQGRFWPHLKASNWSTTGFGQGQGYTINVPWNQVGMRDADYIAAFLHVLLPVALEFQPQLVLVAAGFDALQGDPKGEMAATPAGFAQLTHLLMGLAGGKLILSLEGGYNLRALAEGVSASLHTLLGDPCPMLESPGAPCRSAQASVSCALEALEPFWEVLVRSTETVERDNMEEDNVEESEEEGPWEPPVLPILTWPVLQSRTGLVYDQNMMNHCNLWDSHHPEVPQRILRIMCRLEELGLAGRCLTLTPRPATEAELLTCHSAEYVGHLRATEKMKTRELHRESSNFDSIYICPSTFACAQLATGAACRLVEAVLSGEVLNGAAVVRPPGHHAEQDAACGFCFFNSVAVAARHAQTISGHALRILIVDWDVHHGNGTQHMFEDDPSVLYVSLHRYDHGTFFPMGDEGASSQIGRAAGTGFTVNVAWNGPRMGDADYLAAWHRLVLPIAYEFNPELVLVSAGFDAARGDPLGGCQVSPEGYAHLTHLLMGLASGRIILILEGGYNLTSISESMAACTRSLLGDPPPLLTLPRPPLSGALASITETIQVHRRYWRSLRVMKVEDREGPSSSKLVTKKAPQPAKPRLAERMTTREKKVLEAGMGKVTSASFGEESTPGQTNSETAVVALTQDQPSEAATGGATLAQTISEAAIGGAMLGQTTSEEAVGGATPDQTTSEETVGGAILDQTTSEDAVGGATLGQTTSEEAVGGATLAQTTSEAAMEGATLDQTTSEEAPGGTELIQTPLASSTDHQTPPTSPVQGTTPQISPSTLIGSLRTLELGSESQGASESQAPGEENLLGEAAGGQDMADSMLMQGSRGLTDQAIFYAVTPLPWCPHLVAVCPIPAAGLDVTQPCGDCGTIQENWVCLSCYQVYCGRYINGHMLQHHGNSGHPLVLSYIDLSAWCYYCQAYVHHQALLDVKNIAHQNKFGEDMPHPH

[4] = test system: HCT-116; test: Antiproliferative activity against human HCT-116 cells assessed as cell growth inhibition at 5 uM incubated for 48 hrs by CCK-8 assay; assay type: functional, cell-based
[5] = biological target: Histone deacetylase 1 (Homo sapiens, UniProt Q13547); test: Induction of HDAC1 degradation in human RS4-11 cells at 0.5 to 10 uM incubated for 12 hrs by Western blotting analysis; assay type: cell-based; details: dose 0.5-10 µM
Histone deacetylase 1, sequence (Q13547 whole entry): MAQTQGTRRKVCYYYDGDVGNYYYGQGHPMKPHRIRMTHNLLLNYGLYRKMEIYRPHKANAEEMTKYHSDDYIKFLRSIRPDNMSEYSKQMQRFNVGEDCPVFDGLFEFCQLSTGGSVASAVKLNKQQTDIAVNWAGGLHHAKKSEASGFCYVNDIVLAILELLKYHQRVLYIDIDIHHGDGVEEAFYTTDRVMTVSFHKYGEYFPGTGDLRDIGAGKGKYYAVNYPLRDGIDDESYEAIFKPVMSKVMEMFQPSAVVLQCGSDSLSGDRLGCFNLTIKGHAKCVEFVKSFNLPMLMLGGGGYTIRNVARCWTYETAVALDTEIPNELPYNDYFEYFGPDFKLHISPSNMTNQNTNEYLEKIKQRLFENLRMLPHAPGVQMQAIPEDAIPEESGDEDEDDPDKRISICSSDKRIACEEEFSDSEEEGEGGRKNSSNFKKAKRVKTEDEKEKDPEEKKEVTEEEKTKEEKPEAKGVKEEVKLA

Measured: Activity

O=C(CCCNc1cccc2c1C(=O)N(C1CCC(=O)NC1=O)C2=O)NCCS (stereo not given)
inactive: all assays above

O=C(CCCCCCCNc1cccc2c1C(=O)N(C1CCC(=O)NC1=O)C2=O)NCCS (stereo not given)
inactive: all assays above

Nc1cc(F)ccc1NC(=O)CCCCNc1cccc2c1C(=O)N(C1CCC(=O)NC1=O)C2=O (stereo not given)
inactive: all assays above

Nc1cc(F)ccc1NC(=O)c1cn(CCOCCOCCOCCNc2cccc3c2C(=O)N(C2CCC(=O)NC2=O)C3=O)nn1 (stereo not given)
inactive: all assays above

O=C(CCCCCNc1cccc2c1C(=O)N(C1CCC(=O)NC1=O)C2=O)NCCS (stereo not given)
inactive: all assays above

O=C(CCCNc1cccc2c1C(=O)N(C1CCC(=O)NC1=O)C2=O)NO (stereo not given)
inactive: all assays above

Nc1ccccc1NC(=O)c1cn(CCOCCOCCNc2cccc3c2C(=O)N(C2CCC(=O)NC2=O)C3=O)nn1 (stereo not given)
inactive: all assays above

O=C1CCC(N2C(=O)c3cccc(NCCOCCn4cc(C(=O)NCCS)nn4)c3C2=O)C(=O)N1 (stereo not given)
inactive: all assays above

Nc1cc(F)ccc1NC(=O)CCCCCNc1cccc2c1C(=O)N(C1CCC(=O)NC1=O)C2=O (stereo not given)
inactive: all assays above

O=C1CCC(N2C(=O)c3cccc(NCc4ccc(C(=O)NO)cc4)c3C2=O)C(=O)N1 (stereo not given)
inactive: all assays above

O=C1CCC(N2C(=O)c3cccc(NCc4ccc(C(=O)NCCS)cc4)c3C2=O)C(=O)N1 (stereo not given)
inactive: all assays above

Nc1cccc2c1C(=O)N(C1CCC(=O)NC1=O)C2=O (stereo not given)
inactive: all assays above

O=C1CCC(N2C(=O)c3cccc(NCCOCCOCCOCCn4cc(C(=O)NO)nn4)c3C2=O)C(=O)N1 (stereo not given)
inactive: all assays above

Nc1ccccc1NC(=O)CCCNc1cccc2c1C(=O)N(C1CCC(=O)NC1=O)C2=O (stereo not given)
inactive: all assays above

O=C(CCCCCCCNc1cccc2c1C(=O)N(C1CCC(=O)NC1=O)C2=O)NO (stereo not given)
inactive: all assays above

Nc1cc(F)ccc1NC(=O)c1cn(CCOCCOCCNc2cccc3c2C(=O)N(C2CCC(=O)NC2=O)C3=O)nn1 (stereo not given)
inactive: all assays above

O=C(CCCCCCNc1cccc2c1C(=O)N(C1CCC(=O)NC1=O)C2=O)NCCS (stereo not given)
inactive: all assays above

O=C(CCCCCNc1cccc2c1C(=O)N(C1CCC(=O)NC1=O)C2=O)NO (stereo not given)
inactive: all assays above

Nc1cc(F)ccc1NC(=O)c1cn(CCOCCNc2cccc3c2C(=O)N(C2CCC(=O)NC2=O)C3=O)nn1 (stereo not given)
inactive: all assays above

CCCNNC(=O)CCCCCCNc1cccc2c1C(=O)N(C1CCC(=O)NC1=O)C2=O (stereo not given)
inactive: all assays above

Nc1ccccc1NC(=O)CCCCCNc1cccc2c1C(=O)N(C1CCC(=O)NC1=O)C2=O (stereo not given)
inactive: all assays above

Nc1ccccc1NC(=O)c1cn(CCOCCNc2cccc3c2C(=O)N(C2CCC(=O)NC2=O)C3=O)nn1 (stereo not given)
inactive: all assays above

Nc1cc(F)ccc1NC(=O)CCCCCCCNc1cccc2c1C(=O)N(C1CCC(=O)NC1=O)C2=O (stereo not given)
inactive: all assays above

O=C1CCC(N2C(=O)c3cccc(NCCOCCOCCOCCn4cc(C(=O)NCCS)nn4)c3C2=O)C(=O)N1 (stereo not given)
inactive: all assays above

CCNNC(=O)c1ccc(CNc2cccc3c2C(=O)N(C2CCC(=O)NC2=O)C3=O)cc1 (stereo not given)
inactive: all assays above

O=C(CCCCNc1cccc2c1C(=O)N(C1CCC(=O)NC1=O)C2=O)NCCS (stereo not given)
inactive: all assays above

O=C1CCC(N2C(=O)c3cccc(NCCOCCn4cc(C(=O)NO)nn4)c3C2=O)C(=O)N1 (stereo not given)
inactive: all assays above

Nc1ccccc1NC(=O)CCCCNc1cccc2c1C(=O)N(C1CCC(=O)NC1=O)C2=O (stereo not given)
inactive: all assays above

CCCNNC(=O)c1ccc(CNc2cccc3c2C(=O)N(C2CCC(=O)NC2=O)C3=O)cc1 (stereo not given)
inactive: all assays above

O=C1CCC(N2C(=O)c3cccc(NCCOCCOCCn4cc(C(=O)NO)nn4)c3C2=O)C(=O)N1 (stereo not given)
inactive: all assays above

O=C1CCC(N2C(=O)c3cccc(NCCOCCOCCn4cc(C(=O)NCCS)nn4)c3C2=O)C(=O)N1 (stereo not given)
inactive: all assays above

— ChEMBL document CHEMBL5532657, “Serendipitous discovery of Class I HDAC inhibitors from rational design of molecular glue degraders targeting HDAC” (Eur J Med Chem, 2024)
